Measurements taken from patent publication US20220362396A1, “AMINO-PYRAZINECARBOXAMIDE COMPOUNDS, CONJUGATES, AND USES THEREOF” (Silverback Therapeutics, Inc., priority 2018, published 2022).

Legend:
TGFBR2 = biological target: T1, TGFBR2 (Homo sapiens, UniProt P37173); assay: TGFBR2 RBC assay (enzyme inhibition assay, Reaction Biology Corp.); type: biochemical
T1 construct: purchased Reaction Biology Corp
Method: Compounds of the disclosure were also assayed by Reaction Biology Corp. using the TGFBR2 RBC assay (enzyme inhibition assay). […] NT refers to not tested.

[1] = system: TGFβ/SMAD Signaling Pathway SBE reporter cell line; assay: TGFβ reporter assay, in vitro small molecule screening (luciferase); type: cell-based; settings: TGFβ stimulation, luminescence
Method: TGFβ/SMAD Signaling Pathway SBE reporter cell line was obtained from BPS Bioscience. Cells were passed, expanded, and stored in liquid nitrogen as per the supplier's instructions with the exception that growth media is changed to DMEM-C with Geneticin (DMEM supplemented with 10% fetal bovine serum, 1×NEAA, 1 mM Pyruvate, 2 mM glutamine, 50 μg/mL penicillin, 50 U/mL streptomycin and 400 μg/mL of Geneticin). The assay media was MEM supplemented with 0.5% fetal bovine serum, 1×NEAA, 1 mM Pyruvate, 50 μg/mL penicillin and 50 U/mL streptomycin.
Test samples (at desired concentrations diluted in assay media) were added to a 96-well assay plate, 20 μL per well. Reporter cells were harvested from the tissue culture flasks by incubation in small quantity of PBS at 37° C. for two minutes after the media in the flask is removed and cells rinsed with PBS. Cells were counted and diluted in the assay media at approximately 0.5×10^6 cells/mL and then 80 μL/well of cells were added to the assay plate containing the 20 μL/well of test samples (or media only), and incubated for approximately 5-6 hours at 37° C. in a 5% CO2 humidified incubator. After that time, 15 μL of TGFβ diluted to 12 ng/mL in the assay media was added to the plate. Controls included TGFβ titration (from 50 to 0 ng/mL) without inhibitors, and media only (without cells, inhibitor or TGFβ). Plates were incubated at 37° C. in a 5% CO2 humidified incubator for 18 h. Luciferase substrate solution is subsequently added at 100 μL per well, incubated in the dark at room temperature for 15 min, and luminescence is measured using a luminometer. EC50 values and curve fits were obtained using Prism (GraphPad Software).

T1 sequence (P37173 23-567): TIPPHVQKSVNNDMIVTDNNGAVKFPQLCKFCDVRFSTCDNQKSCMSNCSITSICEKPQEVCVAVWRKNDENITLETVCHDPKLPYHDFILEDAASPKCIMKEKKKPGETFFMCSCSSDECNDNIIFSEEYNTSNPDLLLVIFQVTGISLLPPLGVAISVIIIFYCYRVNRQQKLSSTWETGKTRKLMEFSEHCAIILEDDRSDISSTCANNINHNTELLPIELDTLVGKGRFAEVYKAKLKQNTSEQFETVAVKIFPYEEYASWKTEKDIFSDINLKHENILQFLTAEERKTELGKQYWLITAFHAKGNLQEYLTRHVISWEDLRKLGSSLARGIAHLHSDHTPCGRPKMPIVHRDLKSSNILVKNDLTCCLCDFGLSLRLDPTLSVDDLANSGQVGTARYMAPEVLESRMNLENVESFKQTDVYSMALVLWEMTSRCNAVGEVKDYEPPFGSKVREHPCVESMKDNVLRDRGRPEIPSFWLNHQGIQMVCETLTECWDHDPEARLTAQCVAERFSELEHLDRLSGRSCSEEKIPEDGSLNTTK

Row | IC50 (TGFBR2) [nM] | EC50 [1] [nM] | SMILES
1 | < 50 | 100 to 1000 | Nc1ncc(-c2ccc(CCNC(=O)OCc3ccccc3)cc2)nc1C(=O)Nc1cnccc1N1CCOCC1 [Compound 1.1, Benzyl (4-(5-amino-6-((4-morpholinopyridin-3-yl)carbamoyl)pyrazin-2-yl)phenethyl)carbamate]
2 | > 1000 | > 1000 | [N-]=[N+]=NCC1COCCN1c1ccncc1NC(=O)c1nc(-c2ccc(CCNC(=O)OCc3ccccc3)cc2)cnc1N (stereo not drawn) [Compound 27]
3 | 100 to 1000 | 100 to 1000 | Nc1ncc(-c2ccc(CCNC(=O)OCc3ccccc3)cn2)nc1C(=O)Nc1cnccc1N1CCOCC1 [Compound 116]
4 | 100 to 1000 | 100 to 1000 | NCc1cccc(-c2cnc(N)c(C(=O)Nc3cnccc3N3CCOCC3)n2)c1 [Compound 175]
5 | < 50 | < 50 | Nc1ncc(-c2ccc(N3CCOCC3)cc2)nc1C(=O)Nc1cnccc1N1CCOCC1 [Compound 258]
6 | > 1000 | > 1000 | NCC1COCCN1c1ccncc1NC(=O)c1nc(-c2ccc(CCNC(=O)OCc3ccccc3)cc2)cnc1N (stereo not drawn) [Compound 37]
7 | 50 to 100 | 100 to 1000 | Nc1ncc(-c2ccc3c(c2)CCCNC3)nc1C(=O)Nc1cnccc1N1CCOCC1 [Compound 229]
8 | < 50 | > 1000 | CC(C)c1nccn1-c1ccncc1NC(=O)c1nc(-c2ccc(CCNC(=O)OCc3ccccc3)cc2)cnc1N [Compound 143]
9 | < 50 | 50 to 100 | Nc1ncc(-c2ccc3c(c2)CCC3O)nc1C(=O)Nc1cnccc1N1CCOCC1 (stereo not drawn) [Compound 247]
10 | < 50 | 100 to 1000 | CN(CCNC(=O)OC(C)(C)C)c1ccc(-c2cnc(N)c(C(=O)Nc3cnccc3N3CCOCC3)n2)cc1 [Compound 267]
11 | < 50 | 100 to 1000 | Nc1ncc(-c2ccc(C[C@H](N)CO)cc2)nc1C(=O)Nc1cnccc1N1CCOCC1 [Compound 210]
12 | > 1000 | > 1000 | Nc1ncc(-c2ccc(CCNC(=O)OCc3ccccc3)cc2)nc1C(=O)Nc1cnccc1N1CC2(COC2)C1 [Compound 95]
13 | 100 to 1000 | > 1000 | Nc1ncc(-c2cccc3ccccc23)nc1C(=O)Nc1cnccc1N1CCOCC1 [Compound 253]
14 | < 50 | > 1000 | CC(CN)Oc1ccc(-c2cnc(N)c(C(=O)Nc3cnccc3N3CCCCOCC3)n2)cc1 (stereo not drawn) [Compound 257]
15 | < 50 | < 50 | CC(C)(C)OC(=O)N[C@H]1C[C@H](Oc2ccc(-c3cnc(N)c(C(=O)Nc4cnccc4N4CCOCC4)n3)cc2)C1 [Compound 221]
16 | < 50 | 100 to 1000 | CC(C)(C)OC(=O)N[C@H](Cc1ccc(-c2cnc(N)c(C(=O)Nc3cnccc3N3CCOCC3)n2)cc1)C(=O)O [Compound 196]
17 | < 50 | 100 to 1000 | Nc1ncc(-c2cccc(CCCNC(=O)OCc3ccccc3)c2)nc1C(=O)Nc1cnccc1N1CCOCC1 [Compound 178]
18 | < 50 | 50 to 100 | Nc1ncc(-c2ccc(N3CCNCC3)cc2)nc1C(=O)Nc1cnccc1N1CCOCC1 [Compound 70]
19 | < 50 | 100 to 1000 | Cc1nccn1-c1ccncc1NC(=O)c1nc(-c2ccc(CCN)cc2)cnc1N [Compound 4.1, 3-Amino-6-(4-(2-aminoethyl)phenyl)-N-(4-(2-methyl-1H-imidazol-1-yl)pyridin-3-yl)pyrazine-2-carboxamide]
20 | > 1000 | > 1000 | Nc1ncc(-c2ccc(CCNC(=O)OCc3ccccc3)cc2)nc1C(=O)Nc1cnccc1-c1ccncn1 [Compound 49]
21 | 100 to 1000 | > 1000 | NCCc1ccc(-c2cnc(N)c(C(=O)Nc3cnccc3N3CCOCC3)n2)cn1 [Compound 125]
22 | 50 to 100 | 100 to 1000 | CC(C)(C)OC(=O)N1CCCc2cc(-c3cnc(N)c(C(=O)Nc4cnccc4N4CCOCC4)n3)ccc2C1 [Compound 228]
23 | < 50 | > 1000 | Nc1ncc(-c2ccc(C[C@H](N)C(=O)O)cc2)nc1C(=O)Nc1cnccc1N1CCOCC1 [Compound 208]

Row | IC50 (TGFBR2) [nM] | EC50 [1] [nM] | SMILES
24 | < 50 | < 50 | CC(C)(C)OC(=O)N1CCN(Cc2ccc(-c3cnc(N)c(C(=O)Nc4cnccc4N4CCOCC4)n3)cc2)C(=O)C1 [Compound 85]
25 | 100 to 1000 | > 1000 | Nc1ncc(-c2ccc(CCNC(=O)OCc3ccccc3)cc2)nc1C(=O)Nc1cnccc1-c1cc[nH]c(=O)c1 [Compound 39]
26 | < 50 | > 1000 | COC(=O)[C@H](CCOc1ccc(-c2cnc(N)c(C(=O)Nc3cnccc3N3CCOCC3)n2)cc1)NC(=O)OCc1ccccc1 [Compound 264]
27 | < 50 | 50 to 100 | CC(=O)CCC(=O)NCCc1ccc(-c2cnc(N)c(C(=O)Nc3cnccc3N3CCOCC3)n2)cc1 [Compound 51]
28 | < 50 | 100 to 1000 | CC(C)[C@H](NC(=O)OC(C)(C)C)C(=O)N[C@@H](C)C(=O)NCc1ccc(-c2cnc(N)c(C(=O)Nc3cnccc3N3CCOCC3)n2)cc1 [Compound 107]
29 | < 50 | > 1000 | Nc1ncc(-c2ccc3c(c2)CCNC3CN2C(=O)c3ccccc3C2=O)nc1C(=O)Nc1cnccc1N1CCOCC1 (stereo not drawn) [Compound 232]
30 | < 50 | 100 to 1000 | Nc1ncc(-c2ccc(CCNC(=O)OCc3ccccc3)cc2)nc1C(=O)Nc1cnccc1-c1ccccn1 [Compound 25]
31 | < 50 | 100 to 1000 | Nc1ncc(-c2ccc(CCNC(=O)OCc3ccccc3)c(F)c2)nc1C(=O)Nc1cnccc1N1CCOCC1 [Compound 46]
32 | < 50 | 100 to 1000 | NCC1CCc2cc(-c3cnc(N)c(C(=O)Nc4cnccc4N4CCOCC4)n3)ccc2N1 (stereo not drawn) [Compound 244]
33 | < 50 | < 50 | CN(C)c1ccc(-c2cnc(N)c(C(=O)Nc3cnccc3N3CCOCC3)n2)cc1 [Compound 259]
34 | > 1000 | > 1000 | NCCc1ccc(-c2cnc(N)c(C(=O)Nc3cnccc3NCC(N)=O)n2)cc1 [Compound 104]
35 | < 50 | > 1000 | Nc1ncc(-c2ccc(CCNC(=O)OCc3ccccc3)cc2)nc1C(=O)Nc1cnccc1-n1ccnn1 [Compound 120]
36 | > 1000 | > 1000 | COC1CN(c2ccncc2NC(=O)c2nc(-c3ccc(CCN)cc3)cnc2N)C1 [Compound 98]
37 | 50 to 100 | 100 to 1000 | CC(C)(C)OC(=O)NC1CNc2ccc(-c3cnc(N)c(C(=O)Nc4cnccc4N4CCOCC4)n3)cc2C1 (stereo not drawn) [Compound 238]
38 | < 50 | 100 to 1000 | CC(C)(C)OC(=O)N[C@H]1CCN(c2ccc(-c3cnc(N)c(C(=O)Nc4cnccc4N4CCOCC4)n3)cc2)C1 [Compound 273]
39 | < 50 | 50 to 100 | Nc1ncc(-c2ccc(CCNC(=O)CCC(=O)c3ccccc3)cc2)nc1C(=O)Nc1cnccc1N1CCOCC1 [Compound 54]
40 | < 50 | 100 to 1000 | Nc1ncc(-c2ccc(C(=O)NCCNC(=O)OCc3ccccc3)cc2)nc1C(=O)Nc1cnccc1N1CCOCC1 [Compound 76]
41 | 100 to 1000 | 100 to 1000 | Nc1ncc(-c2ccc3c(c2)CCNC3=O)nc1C(=O)Nc1cnccc1N1CCOCC1 [Compound 201]
42 | < 50 | 100 to 1000 | Nc1ccc(-c2ccncc2NC(=O)c2nc(-c3ccc(CCNC(=O)OCc4ccccc4)cc3)cnc2N)cn1 [Compound 43]
43 | < 50 | 100 to 1000 | CC(CNC(=O)OC(C)(C)C)Oc1ccc(-c2cnc(N)c(C(=O)Nc3cnccc3N3CCOCC3)n2)cc1 (stereo not drawn) [Compound 206]
44 | < 50 | > 1000 | COC(=O)[C@H](Cc1ccc(-c2cnc(N)c(C(=O)Nc3cnccc3N3CCOCC3)n2)cc1)NC(=O)OC(C)(C)C [Compound 200]
45 | > 1000 | > 1000 | N#Cc1ccccc1-c1ccncc1NC(=O)c1nc(-c2ccc(CCNC(=O)OCc3ccccc3)cc2)cnc1N [Compound 31]
